Assay results as given in patent US20260258064A1 (SIRONAX LTD., priority 2023, published 2026).

target: T1, SARM1 (50-724) (Homo sapiens, UniProt Q6SZW1); assay: SARM1 (50-724) enzymatic assay (LC-MS/MS); type: biochemical; details: Purified SARM1 (50-724) 2 nM, NMN as activator, NAD+ as substrate, 1 h at room temperature, read-out: IC50 (SARM1 inhibitory activity)
T1 construct: Purified SARM1 (50-724) with a final concentration of 2 nM was pre-incubated with a test compound
T1 sequence (Q6SZW1 50-724): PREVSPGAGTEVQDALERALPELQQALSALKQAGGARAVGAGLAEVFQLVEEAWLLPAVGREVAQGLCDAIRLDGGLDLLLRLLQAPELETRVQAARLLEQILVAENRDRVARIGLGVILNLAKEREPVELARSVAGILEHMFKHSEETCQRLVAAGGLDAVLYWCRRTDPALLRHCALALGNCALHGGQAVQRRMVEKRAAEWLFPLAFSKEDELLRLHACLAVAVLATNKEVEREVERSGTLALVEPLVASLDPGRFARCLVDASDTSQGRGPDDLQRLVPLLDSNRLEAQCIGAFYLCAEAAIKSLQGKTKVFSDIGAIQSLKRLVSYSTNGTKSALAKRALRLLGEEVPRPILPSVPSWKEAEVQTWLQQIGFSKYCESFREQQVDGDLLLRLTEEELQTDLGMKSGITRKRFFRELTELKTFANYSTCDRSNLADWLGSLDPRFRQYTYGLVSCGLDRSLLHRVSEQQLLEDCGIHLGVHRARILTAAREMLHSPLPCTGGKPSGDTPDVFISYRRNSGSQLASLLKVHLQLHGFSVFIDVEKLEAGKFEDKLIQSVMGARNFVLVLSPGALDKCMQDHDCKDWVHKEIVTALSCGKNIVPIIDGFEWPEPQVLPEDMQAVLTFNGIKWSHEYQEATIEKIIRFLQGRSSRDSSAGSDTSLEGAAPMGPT
Outline: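 Human SARM1 (50-724), 2 nM, pre-incubated 15 min at room temperature with compound in Dulbecco's PBS. Reaction started with 200 µM NMN (activator) plus […] NAD^+ substrate, run 1 h at room temperature, quenched with 70% acetonitrile. Turnover quantified by LC-MS/MS; IC50 reported.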

IC50 | SMILES
≤ 0.1 µM | CC(CO)c1ccc2[nH]c(-c3nncn3-c3cccc(Cl)c3Cl)nc2c1 (stereo not drawn) [Example 104, 2-(2-(4-(2,3-dichlorophenyl)-4H-1,2,4-triazol-3-yl)-1H-benzo[d]imidazol-5-yl)propan-1-ol]
≤ 0.1 µM | C=C(CF)c1cc(F)c2[nH]c(-c3nncn3-c3cnccc3C(F)(F)F)nc2c1 [Compound 286, 7-fluoro-5-(3-fluoroprop-1-en-2-yl)-2-(4-(4-(trifluoromethyl)pyridin-3-yl)-4H-1,2,4-triazol-3-yl)-1H-benzo[d]imidazole]
≤ 0.1 µM | O=c1cc(-n2cnnc2-c2cc3cc(C(F)(F)F)cc(F)c3[nH]2)c(OC(F)(F)F)cn1CCO [Compound 410, 4-(3-(7-fluoro-5-(trifluoromethyl)-1H-indol-2-yl)-4H-1,2,4-triazol-4-yl)-1-(2-hydroxyethyl)-5-(trifluoromethoxy)pyridin-2(1H)-one]
≤ 0.1 µM | FC(F)Oc1ncccc1-n1cnnc1-c1nc2cc(C(F)(F)F)ccc2[nH]1 [Compound 235, 2-(4-(2-(difluoromethoxy)pyridin-3-yl)-4H-1,2,4-triazol-3-yl)-5-(trifluoromethyl)-1H-benzo[d]imidazole]
0.1 to 0.5 µM | Oc1cc(-c2ccccc2Cl)c(-c2nc3cc(C(F)(F)F)ccc3[nH]2)nn1 [Compound 406, 5-(2-chlorophenyl)-6-(5-(trifluoromethyl)-1H-benzo[d]imidazol-2-yl)pyridazin-3-ol]
> 1 µM | FC(F)(F)c1ccc2[nH]c(-c3nncn3-c3ccncc3OC3CC3)nc2c1 [Compound 228]
≤ 0.1 µM | Fc1ccc(-n2cnnc2-c2nc3cc(C(F)(F)F)cnc3[nH]2)c(Cl)c1F [Compound 170, 2-(4-(2-chloro-3,4-difluorophenyl)-4H-1,2,4-triazol-3-yl)-6-(trifluoromethyl)-3H-imidazo[4,5-b]pyridine]
≤ 0.1 µM | Fc1cc2[nH]c(-c3nncn3-c3cnccc3C(F)(F)F)nc2c(F)c1C1CC1 [Compound 332, 5-cyclopropyl-4,6-difluoro-2-(4-(4-(trifluoromethyl)pyridin-3-yl)-4H-1,2,4-triazol-3-yl)-1H-benzo[d]imidazole]
≤ 0.1 µM | OCC1CC1c1cc(F)c2[nH]c(-c3nncn3-c3cnccc3C(F)(F)F)nc2c1 (stereo not drawn) [Compound 416, (2-(7-fluoro-2-(4-(4-(trifluoromethyl)pyridin-3-yl)-4H-1,2,4-triazol-3-yl)-1H-benzo[d]imidazol-5-yl)cyclopropyl)methanol]
≤ 0.1 µM | Fc1cc(C2(F)CC2)cc2nc(-c3nnccc3-c3nnccc3C(F)(F)F)[nH]c12 [Compound 466, 7-fluoro-5-(1-fluorocyclopropyl)-2-(4-(trifluoromethyl)-[3,4′-bipyridazin]-3′-yl)-1H-benzo[d]imidazole]
≤ 0.1 µM | CN(C)c1cc(F)c2[nH]c(-c3nncn3-c3cnccc3C(F)(F)F)nc2c1 [Compound 297, 7-fluoro-N,N-dimethyl-2-(4-(4-(trifluoromethyl)pyridin-3-yl)-4H-1,2,4-triazol-3-yl)-1H-benzo[d]imidazol-5-amine]
≤ 0.1 µM | CC(F)(F)c1ccncc1-n1cnnc1-c1nc2cc(C(F)(F)F)ccc2[nH]1 [Compound 260, 2-(4-(4-(1,1-Difluoroethyl)pyridin-3-yl)-4H-1,2,4-triazol-3-yl)-5-(trifluoromethyl)-1H-benzo[d]imidazole]
≤ 0.1 µM | Fc1cc(C2CC2)cc2nc(-c3nnccc3-c3cnccc3C(F)(F)F)[nH]c12 [Compound 420, 6-cyclopropyl-4-fluoro-2-(4-(4-(trifluoromethyl)pyridin-3-yl)pyridazin-3-yl)-1H-benzo[d]imidazole]
0.1 to 0.5 µM | NC1CC1c1ccc2[nH]c(-c3nncn3-c3cnccc3C(F)(F)F)nc2c1F (stereo not drawn) [Compound 324, 2-(4-fluoro-2-(4-(4-(trifluoromethyl)pyridin-3-yl)-4H-1,2,4-triazol-3-yl)-1H-benzo[d]imidazol-5-yl)cyclopropan-1-amine]
≤ 0.1 µM | Cn1nc(-n2cnnc2-c2nc3cc(C(F)(F)F)ccc3[nH]2)c(Cl)c1Cl [Example 53, 2-(4-(4,5-Dichloro-1-methyl-1H-pyrazol-3-yl)-4H-1,2,4-triazol-3-yl)-5-(trifluoromethyl)-1H-benzo[d]imidazole]
> 1 µM | Cn1ccc(C(F)(F)F)c(-n2cnnc2-c2nc3cc(C(F)(F)F)ccc3[nH]2)c1=O [Compound 279, 1-methyl-4-(trifluoromethyl)-3-(3-(5-(trifluoromethyl)-1H-benzo[d]imidazol-2-yl)-4H-1,2,4-triazol-4-yl)pyridin-2(1H)-one]
≤ 0.1 µM | Fc1c(CC(F)F)cc(F)c2[nH]c(-c3nncn3-c3cnccc3C(F)(F)F)nc12 [Compound 329, 5-(2,2-difluoroethyl)-4,7-difluoro-2-[4-[4-(trifluoromethyl)-3-pyridyl]-1,2,4-triazol-3-yl]-1H-benzimidazole]
0.5 to 1 µM | FC(F)(F)c1ccncc1-n1cnnc1-c1nc2c(C3CC3)c(Cl)ccc2[nH]1 [Compound 333, 6-chloro-7-cyclopropyl-2-(4-(4-(trifluoromethyl)pyridin-3-yl)-4H-1,2,4-triazol-3-yl)-1H-benzo[d]imidazole]
0.5 to 1 µM | Cc1ccc2[nH]c(-c3ccnn3C3CCCC3)nc2c1 [Compound 4, 2-(2-cyclopentylpyrazol-3-yl)-5-methyl-1H-benzimidazole]
≤ 0.1 µM | OC1(c2ccc3[nH]c(-c4nncn4-c4cccc(Cl)c4Cl)nc3c2)CCC1 [Example 111]
≤ 0.1 µM | CC(C)(O)c1cc(F)c2[nH]c(-c3nnccc3-c3cnccc3C(F)(F)F)nc2c1 [Compound 418, 2-(4-fluoro-2-(4-(4-(trifluoromethyl)pyridin-3-yl)pyridazin-3-yl)-1H-benzo[d]imidazol-6-yl)propan-2-ol]
≤ 0.1 µM | Clc1cccc(-n2cnnc2-c2nc3cc(Br)ccc3[nH]2)c1Cl [Compound 49, 5-bromo-2-(4-(2,3-dichlorophenyl)-4H-1,2,4-triazol-3-yl)-1H-benzo[d]imidazole]
≤ 0.1 µM | Clc1cc(-c2ccc3[nH]c(-c4nncn4-c4cccc(Cl)c4Cl)nc3c2)[nH]n1 [Example 82, 5-(3-chloro-1H-pyrazol-5-yl)-2-(4-(2,3-dichlorophenyl)-4H-1,2,4-triazol-3-yl)-1H-benzo[d]imidazole]
≤ 0.1 µM | CC(Cc1nccs1)c1cc(F)c2[nH]c(-c3nncn3-c3cnccc3C(F)(F)F)nc2c1 (stereo not drawn) [Compound 465, 2-(2-(7-fluoro-2-(4-(4-(trifluoromethyl)pyridin-3-yl)-4H-1,2,4-triazol-3-yl)-1H-benzo[d]imidazol-5-yl)propyl)thiazole]
≤ 0.1 µM | OCCc1cc(-n2cnnc2-c2nc3cc(C(F)(F)F)ccc3[nH]2)c(OC(F)(F)F)cn1 [Compound 265]
≤ 0.1 µM | OCC1(c2ccc3[nH]c(-c4nncn4-c4cccc(Cl)c4Cl)nc3c2)CCC1 [Example 130]
> 1 µM | CN1CCC(n2cnnc2-c2nc3cc(C(F)(F)F)ccc3[nH]2)C1 (stereo not drawn) [Compound 202, 2-(4-(1-methylpyrrolidin-3-yl)-4H-1,2,4-triazol-3-yl)-5-(trifluoromethyl)-1H-benzo[d]imidazole]
≤ 0.1 µM | FC(F)(F)c1ccc2[nH]c(-c3nncn3-c3cncnc3C(F)(F)F)nc2c1 [Compound 415, 5-(trifluoromethyl)-2-(4-(4-(trifluoromethyl)pyrimidin-5-yl)-4H-1,2,4-triazol-3-yl)-1H-benzo[d]imidazole]
≤ 0.1 µM | FC(F)(F)c1ccc2[nH]c(-c3nncn3-c3cccc(Cl)c3Br)nc2c1 [Example 119]
> 1 µM | FC(F)(F)c1ccncc1-n1cnnc1-c1nc2c(-c3cccnc3)c(Cl)ccc2[nH]1 [Compound 334, 6-chloro-7-(pyridin-3-yl)-2-(4-(4-(trifluoromethyl)pyridin-3-yl)-4H-1,2,4-triazol-3-yl)-1H-benzo[d]imidazole]
